Data published in paper PMC10914731, “Homo-BacPROTAC-induced degradation of ClpC1 as a strategy against drug-resistant mycobacteria” (Nature Communications, 2024).
In brackets after ≈: the same amount, converted by molar mass. Several values for one entry are separate records, joined by “and”; a condition that tells them apart may be missing. Equal entries are not always repeated. *1 amine or outer side, *2 acyl side, *3 side chain or, on linkers, in order; H or OH if unused. Where a SMILES comes first, the peptide text is derived from it. [ ]: non-standard residue; d: D form. X1 = C#CCn1cc(C[C@H](N[*:1])C(=O)[*:2])c2ccccc21; NMeLeu(5-OH,4R) = CN[C@@H](C[C@@H](C)CO)C(=O)O; Phe(βR-OMe) = CO[C@H](c1ccccc1)[C@H](N)C(=O)O; Trp(1-Me) = Cn1cc(C[C@H](N)C(=O)O)c2ccccc21; NMeL = CN[C@@H](CC(C)C)C(=O)O; Pra = C#CC[C@H](N)C(=O)O

These compounds were tested on Mtb (RpoB S450L) ATCC 35838.
Format: cell-based, Mycobacterium tuberculosis
For `C#CC[C@@H]1NC(=O)[C@H](CC(C)C)N(C)C(=O)[C@H](C(C)C)NC(=O)[C@H]([C@H](OC)c2ccccc2)NC(=O)[C@H](C)NC(=O)[C@H](C[C@@H](C)CO)N(C)C(=O)[C@H](Cc2cn(C)c3ccccc23)NC1=O` [Compound 10] (cyclo(A[Phe(βR-OMe)]V[NMeL][Pra][Trp(1-Me)][NMeLeu(5-OH,4R)])), the MIC was 1.6 ± 0.0 µM (≈ 1.46 µg/mL).
`COC(c1ccccc1)C1NC(=O)C(C)NC(=O)C(CC(C)CO)N(C)C(=O)C(Cc2cn(Cc3cn(CCOCCOCCOCCOCCn4cc(Cn5cc(CC6NC(=O)C(C(C)C)NC(=O)C(CC(C)C)N(C)C(=O)C(C(C)C)NC(=O)C(C(OC)c7ccccc7)NC(=O)C(C)NC(=O)C(CC(C)CO)N(C)C6=O)c6ccccc65)nn4)nn3)c3ccccc23)NC(=O)C(C(C)C)NC(=O)C(CC(C)C)N(C)C(=O)C(C(C)C)NC1=O` (stereo not shown) [Compound 8] was tested, and the MIC was 0.2 ± 0.0 µM (≈ 0.434 µg/mL).
`CO[C@H]1/C=C/O[C@@]2(C)Oc3c(C)c(O)c4c(O)c(c(/C=N/N5CCN(C)CC5)c(O)c4c3C2=O)NC(=O)/C(C)=C\C=C\[C@H](C)[C@H](O)[C@@H](C)[C@@H](O)[C@@H](C)[C@H](OC(C)=O)[C@@H]1C` [Rifampicin, reference compound] was tested, and the MIC was >38.9 µM and >38.88 µM.
`COc1c(N2C[C@@H]3CCCN[C@@H]3C2)c(F)cc2c(=O)c(C(=O)O)cn(C3CC3)c12` [Moxifloxacin, reference compound] was tested, and the MIC was 0.3 ± 0.0 µM and 0.31 µM.
In the case of `NNC(=O)c1ccncc1` [Isoniazid], the MIC was 0.5 ± 0.0 µM and 0.45 µM.
Compound `C#CCn1cc(C[C@@H]2NC(=O)[C@H](C(C)C)NC(=O)[C@H](CC(C)C)N(C)C(=O)[C@H](C(C)C)NC(=O)[C@H]([C@H](OC)c3ccccc3)NC(=O)[C@H](C)NC(=O)[C@H](C[C@@H](C)CO)N(C)C2=O)c2ccccc21` [Compound 5] (cyclo(A[Phe(βR-OMe)]V[NMeL]V[X1][NMeLeu(5-OH,4R)])) has an MIC of 0.4 ± 0.0 µM (≈ 0.376 µg/mL).
Work on `COC(c1ccccc1)C1NC(=O)C(C)NC(=O)C(CC(C)CO)N(C)C(=O)C(Cc2cn(C)c3ccccc23)NC(=O)C(Cc2cn(CCCCCn3cc(CC4NC(=O)C(CC(C)C)N(C)C(=O)C(C(C)C)NC(=O)C(C(OC)c5ccccc5)NC(=O)C(C)NC(=O)C(CC(C)CO)N(C)C(=O)C(Cc5cn(C)c6ccccc56)NC4=O)nn3)nn2)NC(=O)C(CC(C)C)N(C)C(=O)C(C(C)C)NC1=O` (stereo not shown) [Compound 12] yielded an MIC of 0.2 ± 0.0 µM (≈ 0.396 µg/mL).
